Experimental data published in patent US20110160440A1, “Cab Molecules” (GENENCOR INTERNATIONAL, INC., priority 2003, published 2011).

What was measured:
[1] = system: LS174T human colorectal tumor; assay: Anti-tumor activity of CAB1.2 plus C-Mel in LS174T human colorectal model in SCID mice; type: in vivo, CB17-SCID mice
Text: (§1) Female CB17-SCID mice (8-10 weeks, Taconic Labs) were challenged subcutaneously (SC) with 2×10^6 LS174T cells suspended in serum free DMEM in a volume of 100 microliters (Medimmune ACUC protocol # ACF 037). When mean tumor volumes were approximately 100-150 mm^3, animals were randomly distributed into treatment groups. Animals without detectable tumors or excessively large tumors (volume >300 mm^3) were excluded.
Tumor-bearing animals received CAB1.2 in PBS intravenously (IV) at doses of 1 or 2.5 mg/kg in an injection volume of 100 microliters in PBS. C-Mel stored at −70° C. as a 100 mg/ml frozen solution in DMSO) was formulated fresh (15 mg/ml, in a 5:4 ratio of 0.1M Na bicarbonate:PBS) and administered at a dose of 150 mg/kg on an average weight basis, IV bolus, via the tail vein in an injection volume of 200 microliters to all treatment groups receiving prodrug. Melphalan was formulated fresh (2 mg/ml in 20% DMSO/PBS) and administered intraperitoneally in an injection volume of 100 microliters. Briefly, animals administered CAB1.2 at 2.5 mg/kg were administered C-Mel 18 or 36 hours after CAB1.2 treatment. […]
(§2) Animals were monitored daily for general appearance, animal weights taken once weekly and tumor measurements taken twice weekly. Data was collected and mean tumor volumes for all treatment groups determined±SEM, and plotted for analysis (days post tumor challenge vs tumor volume).

[2] = Treatment-related toxicity (weight loss, animal deaths) in LS174T SCID mouse study; type: in vivo, CB17-SCID mice; settings: for weight loss: melphalan 10 mg/kg
Text: as §1
Tumor-bearing animals received CAB1.2 in PBS intravenously (IV) at doses of 1 or 2.5 mg/kg in an injection volume of 100 microliters in PBS. C-Mel stored at −70° C. as a 100 mg/ml frozen solution in DMSO) was formulated fresh (15 mg/ml, in a 5:4 ratio of 0.1M Na bicarbonate:PBS) and administered at a dose of 150 mg/kg on an average weight basis, IV bolus, via the tail vein in an injection volume of 200 microliters to all treatment groups receiving prodrug. Melphalan was formulated fresh (2 mg/ml in 20% DMSO/PBS) and administered intraperitoneally in an injection volume of 100 microliters. Briefly, animals administered CAB1.2 at 2.5 mg/kg were administered C-Mel 18 or 36 hours after CAB1.2 treatment. Animals administered CAB1.2 at 1 mg/kg were administered C-Mel 24 hours after CAB1.2 treatment. Control groups were as follows: untreated, 2.5 mg/kg CAB1.2 alone, 10 mg/kg melphalan, C-Mel alone, 2.5 mg/kg P97ADEPT followed by C-Mel 18 hours later, 1.5 mg/kg Beta-lactamase (BLA, 1.5 mg/kg, which was equimolar to the 2.5 mg/kg CAB1.2 BLA concentrations used), followed by C-Mel 18 hours later. Treatments were repeated once weekly for 3 cycles. Tumor measurements (in millimeters) were taken twice weekly; the investigator measuring the tumors was blinded to the treatment groups.
as §2
The average weights of individual treatment groups taken on day 9, when the first dose of C-Mel was administered, was used as the baseline weight of tumor-bearing animals for weight loss determinations within each treatment group. […] One animal was lost at day 14 due to procedural error during treatment. Toxicity-related deaths were noted as follows: 2 animals found dead on day 27, 3 animals each found dead on days 30 and 34, for a total of 8/9 toxicity-related deaths on the study for the 18 hr CAB1.2/C-Mel treatment group. […] One animal was sacrificed on day 12 due to excessive necrosis at the tumor site. […]

## N[C@@H](Cc1ccc(N(CCCl)CCCl)cc1)C(=O)O [Melphalan]
[1]; day 34, melphalan 10 mg/kg intraperitoneally (MTD), once weekly 3 cycles
  inhibition vs untreated control: 34%
[1]; melphalan 10 mg/kg treatment group
  tumor regressions: no tumor regressions occurred
[2]; day 16
  weight loss: 11%
[2]; day 24
  weight loss: 12.5%
[2]; melphalan alone 10 mg/kg
  toxicity-related deaths on the study: 3/10
[2]; melphalan at maximum tolerated dose (MTD)
  animal deaths: 30%
